Earlier results as cited in PubChem BioAssay AID1259410 (Chemical Carcinogenesis Research Information System (CCRIS), 2018).

Test system: rodent tumor promotion studies, tumor incidence
Test: CCRIS tumor promotion studies
Conditions: Route [Promoter]: ORAL

Structure (SMILES) | outcome (Carcinogen: DIETHYLNITROSAMINE, 55-18-5, N-METHYL-N-NITROSOUREA, 684-93-5, DIHYDROXY-DI-N-PROPYLNITROSAMINE, 53069-64-6, Carcinogen: DIETHYLNITROSAMINE, 55-18-5, N-METHYL-N-NITROSOUREA, 684-93-5, DIHYDROXY-DI-N-PROPYLNITROSAMINE, 53069-64-6, Doses [Carcinogen]: 100 MG/KG BW DEN ONCE THEN 20 MG/KG BW MNU ONCE ON DAYS 5, 8, 11, AND 14 FOLLOWED BY 0.1% DHEN IN DRINKING WATER FOR 2 W, Doses [Promoter]: 0, 0.25% IN DIET FOR 20 WK BEGINNING POST CARCINOGEN TREATMENT (STUDY DURATION: 52 WK), Route [Carcinogen]: INTRAPERITONEAL, INTRAPERITONEAL, ORAL, Route [Carcinogen]: INTRAPERITONEAL, INTRAPERITONEAL, ORAL, Species: RAT, Strain/Sex: SPRAGUE-DAWLEY/MALE) | outcome (Carcinogen: DIETHYLNITROSAMINE, 55-18-5, N-METHYL-N-NITROSOUREA, 684-93-5, DIHYDROXY-DI-N-PROPYLNITROSAMINE, 53609-64-6, Carcinogen: DIETHYLNITROSAMINE, 55-18-5, N-METHYL-N-NITROSOUREA, 684-93-5, DIHYDROXY-DI-N-PROPYLNITROSAMINE, 53609-64-6, Doses [Carcinogen]: 100 MG/KG BW DEN ONCE, 20 MG/KG BW MNU 2/WK FOR 2 WK, THEN 0.1% DHPN IN DRINKING WATER FOR 2 WK, Doses [Promoter]: O, 0.25% IN DIET FOR 20 WK BEGINNING POST CARCINOGEN TREATMENT (STUDY DURATION: 52 WK), Route [Carcinogen]: INTRAPERITONEAL, INTRAPERITONEAL, ORAL, Route [Carcinogen]: INTRAPERITONEAL, INTRAPERITONEAL, ORAL, Species: RAT, Strain/Sex: SPRAGUE-DAWLEY/MALE) | outcome (Doses [Carcinogen]: 0.5 PPM FOR 30 MIN, Doses [Promoter]: 0, 1000 PPM IN DIET BEGINNING 14 WK POST CARCINOGEN DOSE (STUDY DURATION: 12 MO), Route [Carcinogen]: IMMERSION, Species: FISH, Strain/Sex: RAINBOW TROUT) | outcome (Doses [Carcinogen]: 12.5 PPB IN WATER FOR 30 MIN, Doses [Promoter]: 0, 2000 PPM IN DIET BEGINNING 4 WK POST CARCINOGEN DOSE AND CONTINUING FOR DURATION OF STUDY (STUDY DURATION: 36 WK), Route [Carcinogen]: IMMERSION, Species: FISH, Strain/Sex: RAINBOW TROUT) | outcome (Doses [Carcinogen]: 12.5 PPB IN WATER FOR 30 MIN, Doses [Promoter]: 0, 2000 PPM IN DIET BEGINNING 12 WK POST CARCINOGEN DOSE AND CONTINUING FOR 12 WK FOLLOWED BY CONTROL DIET FOR 12 WK (ST, Route [Carcinogen]: IMMERSION, Species: FISH, Strain/Sex: RAINBOW TROUT) | outcome (Doses [Carcinogen]: 12.5 PPB IN WATER FOR 30 MIN, Doses [Promoter]: 0, 2000 PPM IN DIET BEGINNING 12 WK POST CARCINOGEN DOSE AND CONTINUING FOR DURATION OF STUDY (STUDY DURATION: 36 WK), Route [Carcinogen]: IMMERSION, Species: FISH, Strain/Sex: RAINBOW TROUT) | outcome (Doses [Carcinogen]: 12.5 PPB IN WATER FOR 30 MIN, Doses [Promoter]: 0, 2000 PPM IN DIET FOR 24 WK BEGINNING POST CARCINOGEN DOSE (STUDY DURATION: 36 WK), Route [Carcinogen]: IMMERSION, Species: FISH, Strain/Sex: RAINBOW TROUT) | outcome (Doses [Carcinogen]: 12.5 PPB IN WATER FOR 30 MIN, Doses [Promoter]: 0, 2000 PPM IN DIET FOR 36 WK BEGINNING POST CARCINOGEN DOSE (STUDY DURATION: 36 WK), Route [Carcinogen]: IMMERSION, Species: FISH, Strain/Sex: RAINBOW TROUT) | outcome (Doses [Carcinogen]: 50-250 PPM IN WATER FOR 30 MIN, Doses [Promoter]: 0, 500, 750, 1000, 1250 PPM IN DIET BEGINNING 3 MO POST CARCINOGEN TREATMENT (STUDY DURATION: 13 MO), Doses [Promoter]: 0, 500, 750, 1000, 1250 PPM IN DIET BEGINNING 3 MO POST CARCINOGEN TREATMENT (STUDY DURATION: 13 MO), Route [Carcinogen]: IMMERSION, Species: FISH, Strain/Sex: RAINBOW TROUT/MALE, FEMALE) | outcome (Doses [Carcinogen]: 50 PPB IN WATER FOR 30 MIN, Doses [Promoter]: 0, 2000 PPM IN DIET BEGINNING POST CARCINOGEN DOSE AND ADMINISTERED 2 D/WK FOR DURATION OF STUDY (STUDY DURATION: 36 WK), Route [Carcinogen]: IMMERSION, Species: FISH, Strain/Sex: RAINBOW TROUT) | outcome (Doses [Carcinogen]: 50 PPB IN WATER FOR 30 MIN, Doses [Promoter]: 0, 2000 PPM IN DIET BEGINNING POST CARCINOGEN DOSE AND ADMINISTERED FOR 1 WK ALTERNATING WEEKLY WITH CONTROL DIET (STUDY, Route [Carcinogen]: IMMERSION, Species: FISH, Strain/Sex: RAINBOW TROUT) | outcome (Carcinogen: 1,2-DIMETHYLHYDRAZINE, 540-73-8, Doses [Carcinogen]: 30 MG/KG BW 1/WK FOR 5 WK, Doses [Promoter]: 0, 500 MG/L IN DRINKING WATER BEGINNING 4 D POST LAST CARCINOGEN DOSE (STUDY DURATION: 6 MO), Route [Carcinogen]: GAVAGE, Species: RAT, Strain/Sex: SPRAGUE-DAWLEY/MALE)
OCc1c[nH]c2ccccc12 | thyroid gland: follicular cell adenoma or carcinoma | thyroid gland: adenoma and adenocarcinoma | liver: tumor | liver: tumor | liver: tumor | liver: tumor | liver: tumor | liver: tumor | liver: tumor | liver: tumor | liver: tumor | –
CN=C(NC#N)NCCSCc1nc[nH]c1C | – | – | – | – | – | – | – | – | – | – | – | intestine: tumor
